Measurements taken from ChEMBL document CHEMBL1146233, “Modification of the ceramide moiety of isoglobotrihexosylceramide on its agonist activity in stimulation of invariant natural killer T cells” (J Med Chem, 2007).
pKd: −log10 of the molar value. Calls of active or inactive are those of the source. No cut-off for these calls is given here.

Experiments:
iNKT [1] = assay: Stimulation of hCD1d-restricted human iNKT cells assessed as IFN-gamma release at 10 ng/mL by ELISA; assay type: functional, cell-based
iNKT [2] = assay: Stimulation of hCD1d-restricted human iNKT cells assessed as IL4 release at 10 ng/mL by ELISA; assay type: functional, cell-based
[3] = Binding affinity to T cell receptor; assay type: cell-based, Homo sapiens

## CCCCCCCCCCCCCCCCCCCCCCCCCC(=O)N[C@@H](CO[C@H]1O[C@H](CO)[C@H](O)[C@H](O)[C@H]1O)[C@H](O)[C@H](O)CCCCCCCCCCCCCC [RGI-7000]
iNKT [1]
  Activity: Active
iNKT [2]
  Activity: Active
[3]
  pKd: 6.46
